Assay results published in PMC12677599 (Advanced Science, 2025).
Read-outs that look alike come from different tables or passages of the source. Where a SMILES comes first, the peptide text is derived from it. [ ]: non-standard residue; d: D form. The star is where a group is joined. PEG4 = NCCOCCOCCOCCOCCC(=O)O; Piperidide = C1CCN(*)CC1

Legend:
[1] = test system: HEK-293 normal cell line; assay: cells; assay type: cell-based; conditions: 24 h
Experimental: (§1) MTT assay was conducted as previously described.^[ [44] ^] Tumor cell lines (NCI‐H460, NCI‐H838, HT‐1080, MCF‐7, PC‐3, U‐251‐MG, and U‐87 MG) were seeded in 96‐well plates at a density of 8000 cells per well in a volume of 100 µL and cultured for 24 h. Normal cell lines (HaCaT, HMEC‐1, MRC‐5, and HEK‐293) were seeded in 96‐well plates at a density of 10 000 cells per well in a volume of 100 µL and cultured for 48 h. After that, only tumor cell lines were starved with 100 µL of SFM for a further 4–6 h. Subsequently, cells were treated with 100 µL of compound solutions with different concentrations for 24 h. Cells treated with SFM and 0.5% DMSO in SFM served as blank control and growth control, respectively. Ten µL of MTT solution (5 mg mL^−1) was added to each well, followed by an additional incubation period of 2 h for tumor cells and 4 h for normal cells. Finally, the solvent in each well was swapped with 100 µL of DMSO to dissolve the formazan crystals. The absorbance was measured by the plate reader at 570 nm.
(§2) The cell viability was calculated (1) Cellviability%=ODSamplegroup−ODBlank/ODGrowthgroup−ODBlank×100%

[2] = test system: erythrocytes; assay type: cell-based; conditions: red cells of horse, 2 h
Experimental: Defibrinated horse blood (1 mL) was washed 3 times with 0.9% NaCl solution to remove plasma and then resuspended in 20 mL of 0.9% NaCl solution to obtain a red blood cell (RBC) suspension. Aliquots of the RBC suspension (100 µL) were incubated with 100 µL of compound solutions at concentrations ranging from 100 to 1.5625 µM (twofold serial dilution) for 2 h at 37 °C. RBCs treated with 0.9% NaCl solution and 1% Triton X‐100 solution served as blank and positive controls, respectively. Subsequently, the samples were centrifuged at 900 × g for 10 min, and the absorbance of the supernatant was measured at 570 nm.
The hemolysis ratio was calculated as (2) Hemolysis%=ODSamplegroup−ODBlank/ODPositivegroup−ODBlank×100%

[3] = test system: MRC-5 normal cell line; assay type: cell-based; conditions: 24 h
Experimental: as §1, §2

[4] = test system: HaCaT normal cell line; assay type: cell-based; conditions: 24 h
Experimental: as §1, §2

[5] = test system: HMEC-1 normal cell line; assay type: cell-based; conditions: 24 h
Experimental: as §1, §2

[6] = test system: H838 cell line; assay type: cell-based; conditions: 24 h
Experimental: as §1, §2

[7] = test system: HT-1080 cell line; assay type: cell-based; conditions: 24 h
Experimental: as §1, §2

[8] = test system: H460 cell line; assay type: cell-based; conditions: 24 h
Experimental: as §1
The antimicrobial stability evaluation was determined in the presence of physiological concentrations of serum. Twenty five µL of compound solutions with the concentration of 3 mM and 25 µL of human serum were mixed. The mixture was incubated for 0, 2, 4, 6, 12, 24 h at 37 °C and then incubated for 15 min at 60 °C to inactivate the enzymes. […]

[9] = test system: Cisplatin-resistance H460 cell line; assay type: cell-based; conditions: 24 h
Experimental: as §1
(§3) Wild type H460 cells were cultured in a T‐75 flask and exposed to 30 µM of cisplatin. Cells were passed when the confluency reached 90%. The IC50 value of cisplatin on this cell line was evaluated every two passages. After the IC50 value was higher than 500 µM, the cultured medium was changed to normal CGM, and the cell line was cultured for another three passages. The IC50 value was evaluated again to make sure the resistance was stable. The other three resistance cell lines establishment process was similar. […] Parental NCI‐H460 cells were exposed to 10 µM 5‐fluorouracil, 2.5 µM paclitaxel, or 2.5 µM etoposide to generate 5‐fluorouracil‐resistant, paclitaxel‐resistant, and etoposide‐resistant cell lines, respectively.

[10] = test system: Etoposide-resistance (DR-EPT) H460 cell line; assay type: cell-based; conditions: 24 h
Experimental: as §1, §3

[11] = test system: 5-Fluorouracil-resistance H460 cell line; assay type: cell-based; conditions: 24 h
Experimental: as §1, §3

[12] = test system: Paclitaxel-resistance (DR-PTX) H460 cell line; assay type: cell-based; conditions: 24 h
Experimental: as §1, §3

[13] = test system: H460 cell line; assay: cells; assay type: cell-based; conditions: 24 h
Experimental: as §1, §2

[14] = test system: matrix-metalloproteinase (MMP); assay: MMP cleavage detection in H460 condition medium; assay type: in vitro ADME; conditions: 50 µM in condition or control medium, HPLC and MS, n = 2
Experimental: NCI‐H460 cells were seeded in 48‐well plates at a density of 24 000 cells per well in a volume of 300 µL and cultured for 24 h. Afterward, 300 µL of SFM was added to each well followed by a 10 h incubation. Next, the supernatant of each well was transferred to 1.5 mL tubes. The supernatant of control group was incubated at 60 °C for 30 min (control medium) while the supernatant of dosing group (condition medium) had no incubation. […] Last, 150 µL of samples were analyzed by analytical HPLC and ESI‐MS. HPLC condition: gradient: 100% solution A from 0 to 5 min and 100% solution A to 0% solution A from 5 to 65 min; flow rate: 1 mL min^−1; detector wavelength: 214 nm. Each sample had two replicates.

[15] = test system: Galleria mellonella larvae; assay: In vivo safety evaluation in G. mellonella larvae
Experimental: G. mellonella larvae (Livefoods Direct Ltd., Yorkshire, UK) were used to assess the in vivo safety of peptides. Experiments were conducted on larvae (250 ± 25 mg) incubated at 37 °C. Ten µL of compound 270 solutions with the final concentrations of 50, 80, and 120 µM were injected into the hemolymph via the second pair of prolegs (counting from the head). Control groups were injected with an equal volume of PBS. Larval survival and body weight were monitored every 1 day for a total of 5 days.

[16] = Compound remaining evaluation in human serum; assay type: in vitro ADME; conditions: 50% human serum (50 µL 3 mM compound + 50 µL serum), 37 °C, 24 h, ethanol precipitation, analytical HPLC 214 nm peak area vs 0 h, n = 2; read-out: remaining ratio in human serum after 24 h
Experimental: Compound solutions (50 µL, 3 mM) were mixed with human serum (50 µL) and incubated for 0, 2, 4, 6, 12, and 24 h at 37 °C. Ethanol (250 µL) was added to precipitate serum proteins, and the samples were centrifuged at 14 000 × g for 20 min at 4 °C. Subsequently, 150 µL of supernatant of each sample was analyzed with analytical HPLC and ESI‐MS/MS. HPLC condition: gradient: 100% solution A to 0% solution A from 0 to 60 min; flow rate: 1 mL min^−1; detector wavelength: 214 nm. Each sample had two replicates.
The compound remaining ratio was calculated as (7) Compoundremaining%=CompoundPeakAreanotat0h/CompoundPeakAreaat0h×100%

Compound: CC[C@H](C)[C@H](NC(=O)[C@H](CCCCN)NC(=O)[C@@H]1CCCN1C(=O)[C@H](CC(C)C)NC(=O)[C@@H](NC(=O)[C@H](CO)NC(=O)[C@H](CCC(=O)N1CCCCC1)NC(=O)[C@H](CC(C)C)NC(=O)[C@H](CC(=O)O)NC(=O)[C@H](CC(=O)O)NC(=O)[C@H](Cc1ccccc1)NC(=O)[C@@H](NC(=O)[C@H](CCCCN)NC(=O)[C@@H]1CCCN1C(=O)[C@H](Cc1ccccc1)NC(=O)[C@@H](N)Cc1ccccc1)[C@@H](C)CC)[C@@H](C)CC)C(=O)N[C@@H](CC(C)C)C(N)=O [174-3] (H-FFPKIFDDLE(Piperidide)SILPKIL-NH2)
- IC50 [1]: 32.6 µM
- HC10 (concentration causing 10% of erythrocytes lysis) [2]: 51.52 µM
- IC50 [3]: 95.8 µM
- IC50 [4]: 87 µM
- IC50 [5]: 52.9 ± 7.31 µM
- IC50 [6]: 39.5 µM
- IC50 [7]: 57.6 ± 8.46 µM
- IC50 [8]: 23.7 ± 1.03 µM
- IC50 [9]: 29.2 ± 2.29 µM
- IC50 [10]: 17.7 ± 2.86 µM
- IC50 [11]: 28.9 ± 3.53 µM
- IC50 [12]: 24.2 ± 2.13 µM

Compound: CC[C@H](C)[C@H](NC(=O)[C@H](CCCCN)NC(=O)[C@@H]1CCCN1C(=O)[C@H](CC(C)C)NC(=O)[C@@H](NC(=O)[C@H](CO)NC(=O)[C@H](CCC(=O)N1CCCCC1)NC(=O)[C@H](CC(C)C)NC(=O)[C@H](CC(=O)O)NC(=O)[C@H](CC(=O)O)NC(=O)[C@H](Cc1ccccc1)NC(=O)[C@@H](NC(=O)[C@H](CCCCN)NC(=O)[C@@H]1CCCN1C(=O)[C@H](Cc1ccccc1)NC(=O)[C@@H](N)Cc1ccccc1)[C@@H](C)CC)[C@@H](C)CC)C(=O)N[C@@H](CC(C)C)C(=O)NCC(=O)N1CCC[C@H]1C(=O)N[C@@H](CC(C)C)C(=O)NCC(=O)N[C@@H](CC(C)C)C(=O)N[C@@H](C)C(=O)NCC(=O)NCCOCCOCCOCCOCCC(=O)NCCOCCOCCOCCOCCC(=O)NCCOCCOCCOCCOCCC(=O)NCCOCCOCCOCCOCCC(N)=O [compound 209] (H-FFPKIFDDLE(Piperidide)SILPKILGPLGLAG[PEG4][PEG4][PEG4][PEG4]-NH2)
- IC50 [13]: 53.4 µM
- IC50 [1]: 98.6 µM
- MMP-cleaved product detection / integrity in H460 medium [14]: remained intact
- IC50 [3]: > 100 µM
- IC50 [4]: > 100 µM
- IC50 [5]: > 100 µM
- IC50 [6]: 84.5 ± 5.91 µM
- IC50 [7]: 86.8 ± 49.1 µM
- IC50 [9]: 94.3 µM
- IC50 [10]: > 100 µM
- IC50 [11]: 84.5 ± 4.55 µM
- IC50 [12]: 97.8 µM

Compound: CC[C@H](C)[C@H](NC(=O)[C@H](CCCCN)NC(=O)[C@@H]1CCCN1C(=O)[C@H](CC(C)C)NC(=O)[C@@H](NC(=O)[C@H](CO)NC(=O)[C@H](CCC(=O)N1CCCCC1)NC(=O)[C@H](CC(C)C)NC(=O)[C@H](CC(=O)O)NC(=O)[C@H](CC(=O)O)NC(=O)[C@H](Cc1ccccc1)NC(=O)[C@@H](NC(=O)[C@H](CCCCN)NC(=O)[C@@H]1CCCN1C(=O)[C@H](Cc1ccccc1)NC(=O)[C@H](Cc1ccccc1)NC(=O)[C@H](CCCCN)NC(=O)[C@H](C)N)[C@@H](C)CC)[C@@H](C)CC)C(=O)N[C@@H](CC(C)C)C(=O)NCC(=O)N1CCC[C@H]1C(=O)N[C@@H](CC(C)C)C(=O)NCC(=O)N[C@@H](CC(C)C)C(=O)N[C@@H](C)C(=O)NCC(=O)NCCOCCOCCOCCOCCC(=O)NCCOCCOCCOCCOCCC(=O)NCCOCCOCCOCCOCCC(=O)NCCOCCOCCOCCOCCC(=O)NCCOCCOCCOCCOCCC(=O)NCCOCCOCCOCCOCCC(N)=O [compound 270] (H-AKFFPKIFDDLE(Piperidide)SILPKILGPLGLAG[PEG4][PEG4][PEG4][PEG4][PEG4][PEG4]-NH2)
- IC95 value, H460 [13]: ≈ 55 µM
- IC50 [1]: > 100 µM
- inhibition of HEK-293 cells at 100 µM [1]; 100: 40%
- HC10 (concentration causing 10% of erythrocytes lysis) [2]: >100 µM
- larval survival after 5 days, 50 µM ([15]; 10 µL injected into hemolymph, 50 µM, 37 °C, day 5): 77.8%
- larval survival after 5 days, 80 µM ([15]; 10 µL injected into hemolymph, 80 µM, 37 °C, day 5): 88.9%
- larval survival after 5 days, 120 µM ([15]; 10 µL injected into hemolymph, 120 µM, 37 °C, day 5): 77.8%
- melanization of larvae ([15]; 50, 80 or 120 µM, 5 days): No melanization
- IC50 [3]: > 100 µM
- IC50 [4]: > 100 µM
- IC50 [5]: > 100 µM
- remaining at 24 h, 1.5 mM [16]: ~100%
- IC50 [8]: 53.6 ± 2.04 µM
- IC50 [9]: 54.7 ± 3.28 µM
- IC50 [10]: 28.1 ± 1.42 µM
- IC50 [11]: 56.44 ± 0.25 µM
- IC50 [12]: 35.3 ± 1.83 µM
